Reference: BindingDB's records for doi:10.1016/0922-4106(95)90037-3 (Universit&Eacute, 1995)
Several values for one entry are separate records, joined by “and”; a condition that tells them apart may be missing. Equal entries are not always repeated. Non-standard residues stand in square brackets, D forms with d. Residues, ends and D or L forms follow the SMILES beside them. ξ: configuration not given here. Ile(3ξ) = CCC(C)[C@H](N)C(=O)O

Target: T1, Pituitary adenylate cyclase-activating polypeptide (Rattus norvegicus, UniProt P13589)
T1 sequence (P13589 whole entry): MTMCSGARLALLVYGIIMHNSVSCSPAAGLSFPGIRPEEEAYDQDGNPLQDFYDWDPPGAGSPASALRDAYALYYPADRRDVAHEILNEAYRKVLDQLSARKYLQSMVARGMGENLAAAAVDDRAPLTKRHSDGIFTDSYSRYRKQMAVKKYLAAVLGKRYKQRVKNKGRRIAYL

SMILES | Ki
CC[C@H](C)[C@H](NC(=O)[C@H](CO)NC(=O)[C@H](CC(N)=O)NC(=O)[C@H](CC(C)C)NC(=O)[C@H](Cc1ccc(O)cc1)NC(=O)[C@H](CCCCN)NC(=O)[C@H](CCCCN)NC(=O)[C@@H](NC(=O)[C@H](C)NC(=O)[C@H](CCSC)NC(=O)[C@H](CCC(N)=O)NC(=O)[C@H](CCCCN)NC(=O)[C@H](CCCN=C(N)N)NC(=O)[C@H](CC(C)C)NC(=O)[C@H](CCCN=C(N)N)NC(=O)[C@@H](NC(=O)[C@H](Cc1ccc(O)cc1)NC(=O)[C@H](CC(N)=O)NC(=O)[C@H](CC(=O)O)NC(=O)[C@@H](NC(=O)[C@H](Cc1ccccc1)NC(=O)[C@@H](NC(=O)[C@H](C)NC(=O)[C@H](CC(=O)O)NC(=O)[C@H](CO)NC(=O)[C@@H](N)Cc1cnc[nH]1)C(C)C)[C@@H](C)O)[C@@H](C)O)C(C)C)C(=O)N[C@@H](CC(C)C)C(=O)N[C@@H](CC(N)=O)C(=O)O [CAS_37221-79-7] | 80 nM
[C][C][C]([C])[C@H]([N]C(=O)[C][N]C(=O)[C@H]([C][C]C([O])=O)[N]C(=O)[C@@H]([N])[C][O])C(=O)[N][C@@H]([C]c1ccccc1)C(=O)[N][C@H](C(=O)[N][C@@H]([C]C([O])=O)C(=O)[N][C@@H]([C][O])C(=O)[N][C@@H]([C]c1ccc([O])cc1)C(=O)[N][C@@H]([C][O])C(=O)[N][C@@H]([C][C][C]N=C([N])[N])C(=O)[N][C@@H]([C]c1ccc([O])cc1)C(=O)[N][C@@H]([C][C][C]N=C([N])[N])C(=O)[N][C@@H]([C][C][C][C][N])C(=O)[N][C@@H]([C][C]C([N])=O)C(=O)[N][C@@H]([C][C]S[C])C(=O)[N][C@@H]([C])C(=O)[N][C@@H]([C]([C])[C])C(=O)[N][C@@H]([C][C][C][C][N])C(=O)[N][C@@H]([C][C][C][C][N])C(=O)[N][C@@H]([C]c1ccc([O])cc1)C(=O)[N][C@@H]([C][C]([C])[C])C(=O)[N][C@@H]([C])C(=O)[N][C@@H]([C])C(=O)[N][C@@H]([C]([C])[C])C(=O)[N][C@@H]([C][C]([C])[C])C([N])=O)[C@@H]([C])[O] [PACAP(2-27)] | 5 nM
CCC(C)[C@H](NC(=O)CNC(=O)[C@@H](N)CC(=O)O)C(=O)N[C@@H](Cc1ccccc1)C(=O)N[C@H](C(=O)N[C@@H](CC(=O)O)C(=O)N[C@@H](CO)C(=O)N[C@@H](Cc1ccc(O)cc1)C(=O)N[C@@H](CO)C(=O)N[C@@H](CCCN=C(N)N)C(=O)N[C@@H](Cc1ccc(O)cc1)C(=O)N[C@@H](CCCN=C(N)N)C(=O)N[C@@H](CCCCN)C(=O)N[C@@H](CCC(N)=O)C(=O)N[C@@H](CCSC)C(=O)N[C@@H](C)C(=O)N[C@H](C(=O)N[C@@H](CCCCN)C(=O)N[C@@H](CCCCN)C(=O)N[C@@H](Cc1ccc(O)cc1)C(=O)N[C@@H](CC(C)C)C(=O)N[C@@H](C)C(=O)N[C@@H](C)C(=O)N[C@H](C(=O)N[C@@H](CC(C)C)C(N)=O)C(C)C)C(C)C)[C@@H](C)O (stereo partly drawn) [PACAP(3-27)] (H-DG[Ile(3ξ)]FTDSYSRYRKQMAVKKYLAAVL-NH2) | 500 nM and 400 nM
CCC(C)[C@H](NC(=O)CNC(=O)[C@@H](N)CC(=O)O)C(=O)N[C@@H](Cc1ccccc1)C(=O)N[C@H](C(=O)N[C@@H](CC(=O)O)C(=O)N[C@@H](CO)C(=O)N[C@@H](Cc1ccc(O)cc1)C(=O)N[C@@H](CO)C(=O)N[C@@H](CCCN=C(N)N)C(=O)N[C@@H](Cc1ccc(O)cc1)C(=O)N[C@@H](CCCN=C(N)N)C(=O)N[C@@H](CCCCN)C(=O)N[C@@H](CCC(N)=O)C(=O)N[C@@H](CCSC)C(=O)N[C@@H](C)C(=O)N[C@H](C(=O)N[C@@H](CCCCN)C(=O)N[C@@H](CCCCN)C(=O)N[C@@H](Cc1ccc(O)cc1)C(=O)N[C@@H](CC(C)C)C(=O)N[C@@H](C)C(=O)N[C@@H](C)C(=O)N[C@H](C(=O)N[C@@H](CC(C)C)C(=O)NCC(=O)N[C@@H](CCCCN)C(=O)N[C@@H](CCCN=C(N)N)C(=O)N[C@@H](Cc1ccc(O)cc1)C(=O)N[C@@H](CCCCN)C(=O)N[C@@H](CCC(N)=O)C(=O)N[C@@H](CCCN=C(N)N)C(=O)N[C@H](C(=O)N[C@@H](CCCCN)C(=O)N[C@@H](CC(N)=O)C(=O)N[C@@H](CCCCN)C(N)=O)C(C)C)C(C)C)C(C)C)[C@@H](C)O (stereo partly drawn) [PACAP(3-38)] (H-DG[Ile(3ξ)]FTDSYSRYRKQMAVKKYLAAVLGKRYKQRVKNK-NH2) | 300 nM

Results, then the molecule that gave them:

Ki | SMILES
8 nM and 10 nM | CSCC[C@H](NC(=O)[C@H](CCC(N)=O)NC(=O)[C@H](CCCCN)NC(=O)[C@H](CCCNC(=N)N)NC(=O)[C@H](Cc1ccc(O)cc1)NC(=O)[C@H](CCCNC(=N)N)NC(=O)[C@H](CO)NC(=O)[C@H](Cc1ccc(O)cc1)NC(=O)[C@H](CO)NC(=O)[C@H](CC(=O)O)NC(=O)[C@@H](NC(=O)[C@@H](N)Cc1ccccc1)[C@@H](C)O)C(=O)N[C@@H](C)C(=O)N[C@H](C(=O)N[C@@H](CCCCN)C(=O)N[C@@H](CCCCN)C(=O)N[C@@H](Cc1ccc(O)cc1)C(=O)N[C@@H](CC(C)C)C(=O)N[C@@H](C)C(=O)N[C@@H](C)C(=O)N[C@H](C(=O)N[C@@H](CC(C)C)C(=O)NCC(=O)N[C@@H](CCCCN)C(=O)N[C@@H](CCCNC(=N)N)C(=O)N[C@@H](Cc1ccc(O)cc1)C(=O)N[C@@H](CCCCN)C(=O)N[C@@H](CCC(N)=O)C(=O)N[C@@H](CCCNC(=N)N)C(=O)N[C@H](C(=O)N[C@@H](CCCCN)C(=O)N[C@@H](CC(N)=O)C(=O)N[C@@H](CCCCN)C(N)=O)C(C)C)C(C)C)C(C)C
0.08 nM | CC[C@H](C)[C@H](NC(=O)CNC(=O)[C@H](CCC(=O)O)NC(=O)[C@H](CO)NC(=O)[C@@H](N)Cc1cnc[nH]1)C(=O)N[C@@H](Cc1ccccc1)C(=O)N[C@H](C(=O)N[C@@H](CC(=O)O)C(=O)N[C@@H](CO)C(=O)N[C@@H](Cc1ccc(O)cc1)C(=O)N[C@@H](CO)C(=O)N[C@@H](CCCNC(=N)N)C(=O)N[C@@H](Cc1ccc(O)cc1)C(=O)N[C@@H](CCCNC(=N)N)C(=O)N[C@@H](CCCCN)C(=O)N[C@@H](CCC(N)=O)C(=O)N[C@@H](CCSC)C(=O)N[C@@H](C)C(=O)N[C@H](C(=O)N[C@@H](CCCCN)C(=O)N[C@@H](CCCCN)C(=O)N[C@@H](Cc1ccc(O)cc1)C(=O)N[C@@H](CC(C)C)C(=O)N[C@@H](C)C(=O)N[C@@H](C)C(=O)N[C@H](C(=O)N[C@@H](CC(C)C)C(N)=O)C(C)C)C(C)C)[C@@H](C)O [PACAP(1-27)]
5 nM and 8 nM | CCC(C)[C@H](NC(=O)CNC(=O)[C@H](CC(=O)O)NC(=O)[C@@H](N)CO)C(=O)N[C@@H](Cc1ccccc1)C(=O)N[C@H](C(=O)N[C@@H](CC(=O)O)C(=O)N[C@@H](CO)C(=O)N[C@@H](Cc1ccc(O)cc1)C(=O)N[C@@H](CO)C(=O)N[C@@H](CCCN=C(N)N)C(=O)N[C@@H](Cc1ccc(O)cc1)C(=O)N[C@@H](CCCN=C(N)N)C(=O)N[C@@H](CCCCN)C(=O)N[C@@H](CCC(N)=O)C(=O)N[C@@H](CCSC)C(=O)N[C@@H](C)C(=O)N[C@H](C(=O)N[C@@H](CCCCN)C(=O)N[C@@H](CCCCN)C(=O)N[C@@H](Cc1ccc(O)cc1)C(=O)N[C@@H](CC(C)C)C(=O)N[C@@H](C)C(=O)N[C@@H](C)C(=O)N[C@H](C(=O)N[C@@H](CC(C)C)C(=O)NCC(=O)N[C@@H](CCCCN)C(=O)N[C@@H](CCCN=C(N)N)C(=O)N[C@@H](Cc1ccc(O)cc1)C(=O)N[C@@H](CCCCN)C(=O)N[C@@H](CCC(N)=O)C(=O)N[C@@H](CCCN=C(N)N)C(=O)N[C@H](C(=O)N[C@@H](CCCCN)C(=O)N[C@@H](CC(N)=O)C(=O)N[C@@H](CCCCN)C(N)=O)C(C)C)C(C)C)C(C)C)[C@@H](C)O (stereo partly drawn) [PACAP(2-38)] (H-SDG[Ile(3ξ)]FTDSYSRYRKQMAVKKYLAAVLGKRYKQRVKNK-NH2)
0.1 nM | CC[C@H](C)[C@H](NC(=O)CNC(=O)[C@H](CC(=O)O)NC(=O)[C@H](CO)NC(=O)[C@@H](N)Cc1cnc[nH]1)C(=O)N[C@@H](Cc1ccccc1)C(=O)N[C@H](C(=O)N[C@@H](CC(=O)O)C(=O)N[C@@H](CO)C(=O)N[C@@H](Cc1ccc(O)cc1)C(=O)N[C@@H](CO)C(=O)N[C@@H](CCCNC(=N)N)C(=O)N[C@@H](Cc1ccc(O)cc1)C(=O)N[C@@H](CCCNC(=N)N)C(=O)N[C@@H](CCCCN)C(=O)N[C@@H](CCC(N)=O)C(=O)N[C@@H](CCSC)C(=O)N[C@@H](C)C(=O)N[C@H](C(=O)N[C@@H](CCCCN)C(=O)N[C@@H](CCCCN)C(=O)N[C@@H](Cc1ccc(O)cc1)C(=O)N[C@@H](CC(C)C)C(=O)N[C@@H](C)C(=O)N[C@@H](C)C(=O)N[C@H](C(=O)N[C@@H](CC(C)C)C(=O)NCC(=O)N[C@@H](CCCCN)C(=O)N[C@@H](CCCNC(=N)N)C(=O)N[C@@H](Cc1ccc(O)cc1)C(=O)N[C@@H](CCCCN)C(=O)N[C@@H](CCC(N)=O)C(=O)N[C@@H](CCCNC(=N)N)C(=O)N[C@H](C(=O)N[C@@H](CCCCN)C(=O)N[C@@H](CC(N)=O)C(=O)N[C@@H](CCCCN)C(N)=O)C(C)C)C(C)C)C(C)C)[C@@H](C)O [PACAP]
